The values below come from patent US20250122193A1, “NOVEL PYRIDOCARBAZOLIUM COMPOUNDS AND MEDICAL USES THEREOF” (MyCural Therapeutics, priority 2021, published 2025).

For series [1], the system named is MYC/BCL-XL-driven acute myeloblastic leukemia.
Protocol: A) Schematic plan of the experiment B) Flow cytometry analysis of GFP^+ leukemic blasts in bone marrow on day 11 (n=5), day 15 (n=5), and at the end point (n=9) after daily i.p. injection of 12.5 mg/kg MYCMI-7, compared with vehicle (n=3) mice. C). H&E and MYC immunohistochemistry (IHC) stainings of spleen sections at the endpoint. Images were taken at 10× magnification. D) quantification of MYC IHC stainings of spleen sections at the endpoint. E) Western blot analysis of cleaved caspase 3 and H3K9me3 expression in spleens at endpoint after treating mice with MYCMI-7 or vehicle (3 mice from each condition). Actin was used as loading control. At the end points, the last injection was done 3 hrs before sacrifice.
3×10^5 cells were injected into each recipient C57BL mouse after irradiation (600 rad). AML-like leukemia initiation was confirmed via flow cytometry and Giemsa staining, at day 8 after transplantation. MYCMI-7 were then administrated intraperitoneally daily at a dose of 12.5 mg/kg. Liver, spleen and bone marrow were extracted at day 11, 15 and endpoint for measurement. In addition, body weight of mouse in each group was also collected every 4th day until the endpoint of the experiment.
We next investigated potential anti-tumor effects of MYCMI-7 in vivo. […] The mice were then sacrificed according to scheme illustrated in FIG. 7A.
Series [2] concerns primary patient derived glioblastoma cells. Kind of series: primary glioblastoma cultures, resazurin assay. The following applies: 42 patients, 2D cultures, 72 hours.
Protocol: A) Primary glioblastoma samples from 42 patient biopsies were cultured for 72 hours in presence of MYCMI-7 at indicated doses and cell growth was measured by the resazurin assay.
Viability measurements in glioblastoma initiating cell cultures: The adherent human glioblastoma initiating cell cultures (2) were seeded on laminin-coated 384-well microplates (BD Falcon Optilux #353962). […] Cell cultures (45 for screen 2 and 24/29 for screen 3) were plated one day prior to treatment using a Multidrop plate dispenser (ThermoScientific). Drugs were transferred using an ECHO550 non-contact liquid dispenser (Labcyte, USA) to a 384 standard dispensing plate. The substances were subsequently diluted in medium and lifted with a 384 head and a Janus MTD liquid dispenser (PerkinElmer, USA) to the cell plates. The screening experiment was assayed for viability using resazurin (R7017, Sigma Aldrich) after 72 hours of treatment as previously described (3), and detected by a fluorescent plate reader (EnVision multilabel reader, PerkinElmer) at excitation and emission wavelengths of 535/595 nm. As a negative control, DMSO vehicle was added at 4 different concentrations (16 wells/plate) and doxorubicin was used as a positive control (one 11-dose response curve on each plate). Each treatment dose was mapped to their individual exact DMSO concentration for normalization. […]
Series [3] has as its system primary normal human epidermal melanocytes (NHEM). Kind of series: cell growth and trypan blue viability, NHEM. The series is classed as cell-based. The following applies: 72 hours. The method, then: FIG. 4: MYCMI-7 induces apoptosis in malignant cells and growth arrest in normal cells. A) Cell cycle distribution analysis by flow cytometry of MYC-regulated P493-6 cells and normal rat embryo fibroblasts (REFs). Left panel, P493-6 synchronized in G0 by 24 hours treatment of […] doxycycline. Doxycycline was removed and the cells were harvested 48 hours after the addition of fresh medium containing DMSO or 5 μM MYCMI-7. Right panel, flow cytometry analysis of normal REFs treated with DMSO or 5 μM MYCMI-7. B) Apoptosis assay using the Cell Death Detection ELISA^plus kit. Left panel, immortalized Rat1 fibroblasts with different MYC status after 24 hours of 5 μM MYCMI-7 treatment, middle panel and right panels, normal REFs and normal peripheral blood lymphocytes, respectively, after 24 and 48 hours of 5 μM MYCMI-7 treatment. C) Measurement of viability and apoptosis by Apo-Tox Glo Triplex assay in A375 melanoma cells after 3 days of treatment with MYCMI-7 with the indicated concentrations. […] E) NHDFs treated with 3 μM MYCMI-7 for 72 hrs. Viability was measured by trypan blue exclusion assay. F) Cell growth measured with Cyt62 assay of primary normal human epidermal melanocytes (NHEM) treated for 72 hours with MYCMI-7, G) Viability measured by trypan blue exclusion assay of NHEM after treatment for 72 hours with MYCMI-7.

For series [4], the system named is SKN-DZ neuroblastoma cells with MYCN-amplification. As to the kind of experiment: 3D colony formation in agarose, SK-N-DZ. The series is classed as cell-based. As to conditions: 3D cultures, 2 weeks.
Protocol: C) 3D cultures of SKN-DZ neuroblastoma cells with MYCN-amplification exposed to indicated concentrations of MYCMI-7 for 2 weeks. Colony formation in agarose was detected by MTT staining and quantified.
For anchorage-independent growth assay, cells were suspended in 250 μl 0.35% SeaPlaque agarose (InVitro) and seeded into 24 well plates which had previously been coated with a bottom layer of 250 μl 0.7% agarose. After 16 days, the colonies were stained with 100 μg/ml MTT (Sigma) overnight and colonies were counted.
For another series, the system named is MYC mRNA. Kind of series: MYC mRNA expression by RT-qPCR. The series is classed as cell-based. The protocol: A) Measurement of MYC mRNA expression by RTqPCR after treatment with MYCMI-7 and different topoisomerase inhibitors at indicated concentrations. […] D) Western blot analysis of p53 and p21 expression after exposure to 5 μM MYCMI-7, ellipticine or camptothecin (CPT) in HCT116 cells. E) Western blot analysis of phospho-ATM, total ATM and p53 expression after exposure to indicated concentrations of MYCMI-7 and ellipticine in A375 cells after 3 hrs treatment.

Setting [5] is: endpoint, compared with vehicle.

As to `CCN(CC)CC[n+]1ccc2c(C)c3[nH]c4ccccc4c3c(C)c2c1` [MYCMI-7, 2-(5,11-Dimethyl-6H-25-pyrido[4,3-b]carbazol-2-yl)-N,N-diethylethanamine bromide], in series [1] (12.5 mg/kg daily i.p.), the body weight entry is recorded as “retained their weight”, the mouse survival result is reported as “no significant difference” and the side effects entry is “no signs of severe side effects”. Also, in series [1] (12.5 mg/kg daily i.p., day 15), the “GFP positive leukemic cells in bone marrow” value is “undetectable”. Further, the “leukemic cells in bone marrow” value in series [1] (12.5 mg/kg daily i.p., end point (20+/−4 days)) is “around 10%”. In series [1] (endpoint, compared to vehicle), the spleen structure entry is “retained a more normal spleen structure”. Further, in series [1] (setting [5]), the “MYC expression in leukemic cells (IHC)” value was “strongly reduced”; the “cleaved caspase 3 and H3K9me3 in leukemic spleens (western blot)” value is given as “increased expression”. Further, the GI50 entry in series [2] was “submicromolar range”. In addition, in series [3], the “cell death (trypan blue)” value was “did not induce cell death” and the metabolic activity result was “reduced metabolic activity”. The GI50 result in series [4] is given as “nanomolar range”. Besides, in the series with MYC mRNA (5 μM), the “MYC expression (mRNA)” value is given as “only minor effect”. Moreover, the “MYC mRNA expression” value in the series on MYC mRNA (MCF7 cells, various time points) is recorded as “not due to reduced MYC mRNA expression”.
